In patent US12077503B2, “Substituted cyclic amides and their use as herbicides” (FMC CORPORATION, priority 2015, dated 2024):

Experiments:
Assay type in all cases: in vivo
[1] = test system: wheat (Triticum aestivum); test: Test A postemergence; conditions: Triticum aestivum, post-emergence, 240 h, postemergence
In short: (§1)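 In a loam soil and sand blend, planted seeds got a preemergence directed soil spray, and young plants at the one- to two-leaf stage, 2–10 cm high, got a postemergence application; ~10 d greenhouse hold; injury rated visually, 0 = none, 100 = complete control.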

[2] = test system: giant foxtail (Setaria faberii); test: Test A postemergence; conditions: Setaria faberi, post-emergence, 240 h, postemergence
In short: as §1

[3] = test system: barnyardgrass (Echinochloa crus-galli); test: Test A postemergence; conditions: Echinochloa crus-galli, post-emergence, 240 h, postemergence
In short: as §1

[4] = test system: ryegrass, Italian (Italian ryegrass, Lolium multiflorum); test: Test A postemergence; conditions: Lolium multiflorum, post-emergence, 240 h, postemergence
In short: as §1

[5] = test system: pigweed (Amaranthus retroflexus); test: Test A postemergence; conditions: Amaranthus retroflexus, post-emergence, 240 h, postemergence
In short: as §1

[6] = test system: Galium (catchweed bedstraw, Galium aparine); test: Test A postemergence; conditions: Galium, post-emergence, 240 h, postemergence
In short: as §1

[7] = test system: corn (Zea mays); test: Test A postemergence; conditions: Zea mays, post-emergence, 240 h, postemergence
In short: as §1

[8] = test system: ragweed (common ragweed, Ambrosia elatior); test: Test A postemergence; conditions: Ambrosia artemisiifolia, post-emergence, 240 h, postemergence
In short: as §1

[9] = test system: blackgrass (Alopecurus myosuroides); test: Test A postemergence; conditions: Alopecurus myosuroides, post-emergence, 240 h, postemergence
In short: as §1

[10] = test system: giant foxtail (Setaria faberii); test: Test A preemergence; conditions: Setaria faberi, pre-emergence, 240 h, preemergence, 0 to 100 scale where 0 is no effect and 100 is complete control, read-out: Foxtail, Giant plant response rating
In short: as §1

[11] = test system: Kochia (Kochia scoparia); test: Test A preemergence; conditions: Bassia scoparia, pre-emergence, 240 h, preemergence, 0 to 100 scale where 0 is no effect and 100 is complete control, read-out: Kochia plant response rating
In short: as §1

[12] = test system: barnyardgrass (Echinochloa crus-galli); test: Test A preemergence; conditions: Echinochloa crus-galli, pre-emergence, 240 h, preemergence, 0 to 100 scale where 0 is no effect and 100 is complete control, read-out: Barnyardgrass plant response rating
In short: as §1

[13] = test system: ryegrass, Italian (Italian ryegrass, Lolium multiflorum); test: Test A preemergence; conditions: Lolium multiflorum, pre-emergence, 240 h, preemergence, 0 to 100 scale where 0 is no effect and 100 is complete control, read-out: Ryegrass, Italian plant response rating
In short: as §1

[14] = test system: pigweed (Amaranthus retroflexus); test: Test A preemergence; conditions: Amaranthus retroflexus, pre-emergence, 240 h, preemergence, 0 to 100 scale where 0 is no effect and 100 is complete control, read-out: Pigweed plant response rating
[15] = test system: ragweed (common ragweed, Ambrosia elatior); test: Test A preemergence; conditions: Ambrosia artemisiifolia, pre-emergence, 240 h, preemergence, 0 to 100 scale where 0 is no effect and 100 is complete control, read-out: Ragweed plant response rating
In short: as §1

[16] = 125 g ai/ha, visual injury rating, approximately 10 d

**Q.** How did the plant injury at 125 g/ha ([1]; 125 g ai/ha, visual injury vs untreated controls after approx. 10 d, 0 = no effect, 100 = complete control, read-out: Wheat plant response rating (0 to 100 scale)) turn out when `Cc1ccc([C@H]2CCN(C)C(=O)[C@@H]2C(=O)Nc2ccc(F)c(F)c2F)cc1` [Compound 1221] was run?
**A.** The plant injury at 125 g/ha was 20%.

**Q.** And the plant injury at 500 g/ha ([1]; 500 g ai/ha, 0 to 100 scale, 0 is no effect, 100 is complete control, read-out: Wheat plant response rating)?
**A.** Its plant injury at 500 g/ha is 60%.

**Q.** What about the pest or weed control at 125 g/ha ([2]; 125 g ai/ha, visual injury vs untreated controls after approx. 10 d, 0 = no effect, 100 = complete control, read-out: Foxtail, Giant plant response rating (0 to 100 scale)) of the same compound?
**A.** Its pest or weed control at 125 g/ha is 90%.

**Q.** What about the pest or weed control at 500 g/ha ([2]; 500 g ai/ha, 0 to 100 scale, 0 is no effect, 100 is complete control, read-out: Foxtail, Giant plant response rating) of the same compound?
**A.** The pest or weed control at 500 g/ha was 90%.

**Q.** And the pest or weed control at 125 g/ha ([3]; 125 g ai/ha, visual injury vs untreated controls after approx. 10 d, 0 = no effect, 100 = complete control, read-out: Barnyardgrass plant response rating (0 to 100 scale))?
**A.** The pest or weed control at 125 g/ha was 30%.

**Q.** What about the pest or weed control at 500 g/ha ([3]; 500 g ai/ha, 0 to 100 scale, 0 is no effect, 100 is complete control, read-out: Barnyardgrass plant response rating) of the same compound?
**A.** Its pest or weed control at 500 g/ha is 60%.

**Q.** And the pest or weed control at 125 g/ha ([4]; 125 g ai/ha, visual injury vs untreated controls after approx. 10 d, 0 = no effect, 100 = complete control, read-out: Ryegrass, Italian plant response rating (0 to 100 scale))?
**A.** The pest or weed control at 125 g/ha was 20%.

**Q.** What about the pest or weed control at 500 g/ha ([4]; 500 g ai/ha, 0 to 100 scale, 0 is no effect, 100 is complete control, read-out: Ryegrass, Italian plant response rating) of the same compound?
**A.** The pest or weed control at 500 g/ha was 70%.

**Q.** What about the pest or weed control at 125 g/ha ([5]; 125 g ai/ha, visual injury vs untreated controls after approx. 10 d, 0 = no effect, 100 = complete control, read-out: Pigweed plant response rating (0 to 100 scale)) of the same compound?
**A.** The pest or weed control at 125 g/ha was 0%.

**Q.** And the pest or weed control at 500 g/ha ([5]; 500 g ai/ha, 0 to 100 scale, 0 is no effect, 100 is complete control, read-out: Pigweed plant response rating)?
**A.** Its pest or weed control at 500 g/ha is 0%.

**Q.** What about the pest or weed control at 125 g/ha ([6]; 125 g ai/ha, visual injury vs untreated controls after approx. 10 d, 0 = no effect, 100 = complete control, read-out: Galium plant response rating (0 to 100 scale)) of the same compound?
**A.** The pest or weed control at 125 g/ha was 40%.

**Q.** And the pest or weed control at 500 g/ha ([6]; 500 g ai/ha, 0 to 100 scale, 0 is no effect, 100 is complete control, read-out: Galium plant response rating)?
**A.** Its pest or weed control at 500 g/ha is 60%.

**Q.** And the plant injury at 125 g/ha ([7]; 125 g ai/ha, visual injury vs untreated controls after approx. 10 d, 0 = no effect, 100 = complete control, read-out: Corn plant response rating (0 to 100 scale))?
**A.** Its plant injury at 125 g/ha is 0%.

**Q.** What about the plant injury at 500 g/ha ([7]; 500 g ai/ha, 0 to 100 scale, 0 is no effect, 100 is complete control, read-out: Corn plant response rating) of the same compound?
**A.** The plant injury at 500 g/ha was 60%.

**Q.** And the pest or weed control at 125 g/ha ([8]; 125 g ai/ha, visual injury vs untreated controls after approx. 10 d, 0 = no effect, 100 = complete control, read-out: Ragweed plant response rating (0 to 100 scale))?
**A.** Its pest or weed control at 125 g/ha is 0%.

**Q.** And the pest or weed control at 500 g/ha ([8]; 500 g ai/ha, 0 to 100 scale, 0 is no effect, 100 is complete control, read-out: Ragweed plant response rating)?
**A.** Its pest or weed control at 500 g/ha is 20%.

**Q.** And the pest or weed control at 125 g/ha ([9]; 125 g ai/ha, visual injury vs untreated controls after approx. 10 d, 0 = no effect, 100 = complete control, read-out: Blackgrass plant response rating (0 to 100 scale))?
**A.** The pest or weed control at 125 g/ha was 60%.

**Q.** What about the pest or weed control at 500 g/ha ([9]; 500 g ai/ha, 0 to 100 scale, 0 is no effect, 100 is complete control, read-out: Blackgrass plant response rating) of the same compound?
**A.** The pest or weed control at 500 g/ha was 70%.

**Q.** And the pest or weed control at 125 g/ha [10, 16]?
**A.** The pest or weed control at 125 g/ha was 90%.

**Q.** What about the pest or weed control at 500 g/ha ([10]; 500 g ai/ha) of the same compound?
**A.** Its pest or weed control at 500 g/ha is 100%.

**Q.** What about the pest or weed control at 125 g/ha [11, 16] of the same compound?
**A.** The pest or weed control at 125 g/ha was 40%.

**Q.** And the pest or weed control at 500 g/ha ([11]; 500 g ai/ha)?
**A.** The pest or weed control at 500 g/ha was 50%.

**Q.** And the pest or weed control at 125 g/ha [12, 16]?
**A.** Its pest or weed control at 125 g/ha is 90%.

**Q.** And the pest or weed control at 500 g/ha ([12]; 500 g ai/ha)?
**A.** Its pest or weed control at 500 g/ha is 100%.

**Q.** What about the pest or weed control at 125 g/ha [13, 16] of the same compound?
**A.** Its pest or weed control at 125 g/ha is 20%.

**Q.** What about the pest or weed control at 500 g/ha ([13]; 500 g ai/ha) of the same compound?
**A.** Its pest or weed control at 500 g/ha is 80%.

**Q.** And the pest or weed control at 125 g/ha [14, 16]?
**A.** Its pest or weed control at 125 g/ha is 0%.

**Q.** What about the pest or weed control at 500 g/ha ([14]; 500 g ai/ha) of the same compound?
**A.** The pest or weed control at 500 g/ha was 50%.

**Q.** What about the pest or weed control at 125 g/ha [15, 16] of the same compound?
**A.** Its pest or weed control at 125 g/ha is 20%.

**Q.** What about the pest or weed control at 500 g/ha ([15]; 500 g ai/ha) of the same compound?
**A.** Its pest or weed control at 500 g/ha is 70%.
